From patent US20040142317A1, “Use of amino acid transporter atbo,+ as a delivery system for drugs and prodrugs” (priority 2003, published 2004)

Columns and labels:
Assay in all cases: D-[3H]-serine transport in HRPE cells transfected with transporter cDNA
Type in all cases: cell-based
Settings in all cases: D-[3H]-serine 5 μM
[1] = biological target: T1, system L1 (LAT1/4F2hc) (Homo sapiens, UniProt Q01650)
T1 construct: expressed in transfected cells; host or cells: HRPE cells
Description: (§1) Transport of D-[^3H]-serine (5 μM) was measured in HRPE cells transfected with cDNA of each transporter.
(§2) The present inventors evaluated the function of 10 different amino acid transporter clones with respect to transport of D-serine in heterologous expression systems (FIG. 11). All of these transporters are expressed in the intestinal tract. The list of the transporters tested include three energy-independent, heterodimeric facilitative transporters (L1, L2, and b^0,+), three subtypes of the Na^+-coupled system A (ATA1, ATA2, and ATA3), two subtypes of the Na^+- and H^+-coupled system N (SN1 and SN2), the Na^+-coupled system ATB^0, and the Na^+- and Cl^−-coupled system ATB^0,+. […] The ability to transport D-serine was the highest for the Na^+- and Cl^−-coupled transporter ATB^0,+. ATB^0,+ belongs to the gene family of neurotransmitter transporters whose transport function is energized by multiple driving forces, namely a Na^+ gradient, a Cl^− gradient, and membrane potential. […] Based on the energetics of these two transport systems, ATB^0,+ is expected to play the leading role in this process.

[2] = biological target: T2, ATA2 (Homo sapiens, UniProt Q96QD8)
T2 construct: expressed in transfected cells; host or cells: HRPE cells
T2 sequence (Q96QD8 1-506): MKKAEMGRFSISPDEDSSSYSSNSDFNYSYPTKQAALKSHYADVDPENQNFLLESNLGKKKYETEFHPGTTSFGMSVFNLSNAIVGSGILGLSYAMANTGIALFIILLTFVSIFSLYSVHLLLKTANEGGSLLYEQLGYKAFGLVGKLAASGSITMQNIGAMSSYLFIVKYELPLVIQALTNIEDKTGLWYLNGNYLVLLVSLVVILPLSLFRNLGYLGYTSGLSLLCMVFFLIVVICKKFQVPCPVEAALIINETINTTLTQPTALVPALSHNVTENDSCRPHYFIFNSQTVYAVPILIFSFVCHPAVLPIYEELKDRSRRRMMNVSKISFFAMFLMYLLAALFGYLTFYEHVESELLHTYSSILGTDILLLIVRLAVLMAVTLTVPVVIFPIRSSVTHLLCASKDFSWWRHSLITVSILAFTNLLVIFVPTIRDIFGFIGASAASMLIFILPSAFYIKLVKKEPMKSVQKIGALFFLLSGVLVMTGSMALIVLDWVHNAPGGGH
Description: as §1, §2

[3] = biological target: T3, b^0,+AT/rBAT (Mus musculus, UniProt Q9QXA6)
T3 construct: expressed in transfected cells; host or cells: HRPE cells
T3 sequence (Q9QXA6 1-487): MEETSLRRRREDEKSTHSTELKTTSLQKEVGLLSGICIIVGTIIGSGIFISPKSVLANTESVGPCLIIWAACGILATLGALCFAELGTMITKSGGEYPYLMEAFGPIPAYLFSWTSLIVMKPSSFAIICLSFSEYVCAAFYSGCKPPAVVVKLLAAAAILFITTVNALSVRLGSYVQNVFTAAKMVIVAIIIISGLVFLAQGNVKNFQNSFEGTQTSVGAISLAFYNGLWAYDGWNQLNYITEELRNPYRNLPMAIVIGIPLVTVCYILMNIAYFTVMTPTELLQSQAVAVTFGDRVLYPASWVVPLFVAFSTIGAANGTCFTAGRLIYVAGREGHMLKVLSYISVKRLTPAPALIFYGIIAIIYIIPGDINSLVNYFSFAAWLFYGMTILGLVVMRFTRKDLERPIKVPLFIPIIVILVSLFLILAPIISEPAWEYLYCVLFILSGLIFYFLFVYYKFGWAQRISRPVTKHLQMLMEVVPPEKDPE
Description: as §1, §2

[4] = biological target: T4, LAT2/4F2hc (Homo sapiens, UniProt Q9UHI5)
T4 construct: expressed in transfected cells; host or cells: HRPE cells
T4 sequence (Q9UHI5 1-535): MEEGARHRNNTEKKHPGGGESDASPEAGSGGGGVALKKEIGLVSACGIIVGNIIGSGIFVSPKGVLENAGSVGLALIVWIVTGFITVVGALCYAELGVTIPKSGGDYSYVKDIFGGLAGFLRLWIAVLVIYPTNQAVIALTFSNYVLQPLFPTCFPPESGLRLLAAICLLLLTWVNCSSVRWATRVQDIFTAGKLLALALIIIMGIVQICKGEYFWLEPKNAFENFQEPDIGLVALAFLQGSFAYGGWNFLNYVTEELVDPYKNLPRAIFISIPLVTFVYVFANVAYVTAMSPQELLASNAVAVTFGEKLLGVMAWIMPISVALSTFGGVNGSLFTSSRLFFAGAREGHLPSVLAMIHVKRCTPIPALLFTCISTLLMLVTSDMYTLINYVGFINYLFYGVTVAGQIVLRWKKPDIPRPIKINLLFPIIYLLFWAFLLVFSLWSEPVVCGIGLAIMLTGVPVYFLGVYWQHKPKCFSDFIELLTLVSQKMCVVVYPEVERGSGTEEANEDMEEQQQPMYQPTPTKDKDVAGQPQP
T4 sequence (P08195 1-529 partner): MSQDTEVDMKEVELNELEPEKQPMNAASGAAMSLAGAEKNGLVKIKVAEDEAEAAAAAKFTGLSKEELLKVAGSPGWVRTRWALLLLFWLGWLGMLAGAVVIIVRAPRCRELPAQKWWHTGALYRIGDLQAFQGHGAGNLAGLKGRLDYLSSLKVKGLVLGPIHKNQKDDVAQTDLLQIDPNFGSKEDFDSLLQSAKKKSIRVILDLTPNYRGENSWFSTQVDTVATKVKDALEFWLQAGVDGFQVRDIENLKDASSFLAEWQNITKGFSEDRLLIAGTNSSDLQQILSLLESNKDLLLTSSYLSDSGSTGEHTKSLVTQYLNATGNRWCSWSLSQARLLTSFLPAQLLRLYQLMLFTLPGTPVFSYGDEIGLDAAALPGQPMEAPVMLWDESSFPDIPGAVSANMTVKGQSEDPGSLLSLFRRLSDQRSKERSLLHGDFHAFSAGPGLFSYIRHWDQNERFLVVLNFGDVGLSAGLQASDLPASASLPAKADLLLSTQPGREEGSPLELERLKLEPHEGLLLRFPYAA
Description: as §1, §2

[5] = biological target: T5, SN1 (Homo sapiens, UniProt Q99624)
T5 construct: expressed in transfected cells; host or cells: HRPE cells
T5 sequence (Q99624 whole entry, species assumed): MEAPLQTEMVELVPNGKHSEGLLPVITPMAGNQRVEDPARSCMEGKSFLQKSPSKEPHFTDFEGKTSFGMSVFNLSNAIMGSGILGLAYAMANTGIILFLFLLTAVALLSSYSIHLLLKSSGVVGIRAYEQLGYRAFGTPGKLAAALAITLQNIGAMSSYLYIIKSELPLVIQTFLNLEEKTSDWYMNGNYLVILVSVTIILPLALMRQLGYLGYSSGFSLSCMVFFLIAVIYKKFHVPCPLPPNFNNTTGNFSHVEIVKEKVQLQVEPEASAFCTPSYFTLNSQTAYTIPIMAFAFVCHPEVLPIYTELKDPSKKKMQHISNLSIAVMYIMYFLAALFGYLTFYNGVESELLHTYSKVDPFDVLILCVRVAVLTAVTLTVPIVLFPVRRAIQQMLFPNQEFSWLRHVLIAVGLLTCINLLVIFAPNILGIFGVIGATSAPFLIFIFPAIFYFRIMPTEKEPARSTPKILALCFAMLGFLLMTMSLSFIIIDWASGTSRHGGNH
Description: as §1, §2

T1 sequence (Q01650 whole entry, species assumed, one chain of several): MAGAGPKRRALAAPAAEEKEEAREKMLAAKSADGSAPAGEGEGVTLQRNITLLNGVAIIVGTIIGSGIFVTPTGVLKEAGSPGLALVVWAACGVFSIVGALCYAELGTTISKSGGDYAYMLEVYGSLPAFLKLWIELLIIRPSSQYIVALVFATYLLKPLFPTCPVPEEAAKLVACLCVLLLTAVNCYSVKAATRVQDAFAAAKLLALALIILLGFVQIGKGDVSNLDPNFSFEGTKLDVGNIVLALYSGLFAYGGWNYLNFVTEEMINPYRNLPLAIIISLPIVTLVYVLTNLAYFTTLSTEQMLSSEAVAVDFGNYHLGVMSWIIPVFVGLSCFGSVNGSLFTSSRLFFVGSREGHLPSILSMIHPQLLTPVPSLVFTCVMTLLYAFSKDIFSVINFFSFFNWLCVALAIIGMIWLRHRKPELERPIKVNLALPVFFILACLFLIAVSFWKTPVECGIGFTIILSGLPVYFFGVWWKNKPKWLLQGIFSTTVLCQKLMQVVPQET

Compound: N[C@H](CO)C(=O)O [D-Serine, D-serine]
- D-serine transport [1]: significant ability to transport
- D-serine transport [2]: showed D-serine transport activity
- D-serine transport [3]: did not exhibit detectable D-serine transport activity
- D-serine transport [4]: did not exhibit detectable D-serine transport activity
- D-serine transport [5]: did not transport D-serine
